# Data: ChEMBL document CHEMBL6096699, “Tröger's Base as a Potential Bridge to Type-I Photosensitizers: Mechanism and Antitumor Applications” (J Med Chem, 2025)
# The source made the active and inactive calls. The calls are words filed in the database; no cut-off is given here.
# Experiments:
# [1] = Dark toxicity in human HBE cells assessed as cell viability incubated for 24 hrs in dark by MTT assay; assay type: cell-based
# [2] = Induction of type-1 ROS generation in tetrahydrofuran assessed as increase in singlet oxygen production by measuring ABDA absorption peak at 0.5 uM followed by LED white light irradiation at 1.8 mWcm/2 for 300 sec by DCFH staining based analysis; assay type: functional
# [3] = Induction of type-1 ROS generation in tetrahydrofuran assessed as fold increase in DHR123 fluorescence intensity at 0.5 uM followed by LED white light irradiation at 1.8 mWcm/2 for 300 sec by DCFH staining based analysis; assay type: functional
# [4] = Photophysical property of the compound assessed as fluorescence quantum yield; assay type: physicochemical
# [5] = Induction of type-1 ROS generation in tetrahydrofuran at 0.5 uM followed by LED white light irradiation at 1.8 mWcm/2 for 300 sec by DCFH staining based analysis; assay type: functional
# [6] = Developmental toxicity in wild type AB zebrafish assessed as survival rate at 50 uM incubated for 72 hrs followed by LED light irradiation at 1.8 mW cm/2 relative to control; set-up: species or system Danio rerio; conditions: in vivo
# [7] = Drug localization in mitochondria of human A549 cells assessed as colocalization by Mitotracker res staining based analysis; assay type: ADME
# A549 [8] = experiment: Inhibition of cell migration in human A549 cells assessed as appearance of blurred cells at 0.25 uM preincubated for 12 hrs followed by incubation under dark condition and measured after 48 hrs by wound healing assay; assay type: functional, cell-based; conditions: time 60.0 hrs
# MDA-MB-231 = experiment: Phototoxicity against human MDA-MB-231 cells assessed as reduction in cell proliferation at 0.156 to 10 uM irradiated with LED light at 1.8 mWcm/2 for 2 hrs and measured after 24 hrs under normoxia condition by MTT assay; assay type: functional, cell-based; conditions: dose 0.156-10 µM, time 26.0 hrs
# MCF7 = experiment: Phototoxicity against human MCF7 cells assessed as reduction in cell proliferation at 0.156 to 10 uM irradiated with LED light at 1.8 mWcm/2 for 2 hrs and measured after 24 hrs under normoxia condition by MTT assay; assay type: functional, cell-based; conditions: dose 0.156-10 µM, time 26.0 hrs
# [9] = Developmental toxicity in wild type AB zebrafish assessed as effect on heart at 50 uM incubated for 72 hrs followed by LED light irradiation at 1.8 mW cm/2 relative to control; set-up: species or system Danio rerio; conditions: in vivo
# A549 [10] = experiment: Inhibition of cell migration in human A549 cells at 0.25 uM preincubated for 12 hrs followed by LED light irradiation 1.8 mW cm/2 for 2 hrs and measured after 48 hrs by wound healing assay; assay type: functional, cell-based; conditions: time 62.0 hrs
# A549 [11] = experiment: Inhibition of cell migration in human A549 cells assessed as appearance of blurred cells at 0.25 uM preincubated for 12 hrs followed by LED light irradiation 1.8 mW cm/2 for 2 hrs and measured after 48 hrs by wound healing assay; assay type: functional, cell-based; conditions: time 62.0 hrs
# A549 [12] = experiment: Induction of intracellular ROS generation in human A549 cells by measuring red fluorescence at 0.4 to 1.2 uM incubated for 24 hrs under dark condition by DHE based fluorescence microscopy analysis; assay type: functional, cell-based; conditions: dose 0.4-1.2 µM
# A549 [13] = experiment: Antitumor activity in human A549 cells xenografted in Ab wild type Zebrafish embryos assessed as decrease in tumor growth by measuring fluorescence intensity at 2.9 to 5.8 ng preincubated for 12 hrs followed by irradiation of LED light of 1.8 mW cm/2 for 2 hrs and measured after 48 to 72 hrs; assay type: functional, cell-based; conditions: dose 2.9-5.8 ng, time 62-86 hrs
# A549 [14] = experiment: Activation of MAPK pathway in human A549 cells assessed as effect on MAPK protein expression at 2.5 to 5 uM by Western blot analysis; assay type: cell-based; conditions: filed as activator, dose 2.5-5 µM
# A549 [15] = experiment: Induction of apoptosis in human A549 cells assessed as upregulation of cleaved PARP expression at 2.5 to 5 uM with irradiation of LED light at 1.8 mW cm/2 by Western blot analysis; assay type: functional, cell-based; conditions: dose 2.5-5 µM
# A549 [16] = experiment: Induction of apoptosis in human A549 cells assessed as increase in nuclear shrinkage at 2.5 to 5 uM incubated for 30 mins with irradiation of LED light at 1.8 mW cm/2 by Hoechst 33342 staining based light microscopy analysis; assay type: functional, cell-based; conditions: dose 2.5-5 µM
# A549 [17] = experiment: Phototoxicity against human A549 cells assessed as reduction in cell proliferation at 0.156 to 10 uM irradiated with LED light at 1.8 mWcm/2 for 2 hrs and measured after 24 hrs under normoxia condition by MTT assay; assay type: functional, cell-based; conditions: dose 0.156-10 µM, time 26.0 hrs
# Mitochondrial membrane [18] = experiment: Induction of mitochondrial membrane potential loss in human A549 cells assessed as decrease in red fluorescence of JC-1 aggregates at 0.4 to 1.2 uM incubated for 24 hrs with irradiation of LED light at 1.8 mW cm/2 by light microscopy analysis; assay type: cell membranes; conditions: dose 0.4-1.2 µM
# A549 [19] = experiment: Inhibition of cell migration in human A549 cells assessed as appearance of loose cells at 0.25 uM preincubated for 12 hrs followed by LED light irradiation 1.8 mW cm/2 for 2 hrs and measured after 48 hrs by wound healing assay; assay type: functional, cell-based; conditions: time 62.0 hrs
# A549 [20] = experiment: Activation of ERK1/2 pathway in human A549 cells assessed as effect on ERK protein expression at 2.5 to 5 uM by Western blot analysis; assay type: cell-based; conditions: filed as activator, dose 2.5-5 µM
# A549 [21] = experiment: Induction of intracellular ROS generation in human A549 cells by measuring red fluorescence at 0.4 to 1.2 uM incubated for 24 hrs in presence of LED light irradiation at 1.8 mW cm/2 by DHE based fluorescence microscopy analysis; assay type: functional, cell-based; conditions: dose 0.4-1.2 µM
# A549 [22] = experiment: Induction of apoptosis in human A549 cells assessed as upregulation of cleaved Bax expression at 2.5 to 5 uM with irradiation of LED light at 1.8 mW cm/2 by Western blot analysis; assay type: functional, cell-based; conditions: dose 2.5-5 µM
# [23] = biological target: Signal transducer and activator of transcription 3 (Homo sapiens) (UniProt P40763); experiment: Inhibition of STAT3 pathway in human A549 cells assessed as decrease in STAT3 protein expression at 2.5 to 5 uM by Western blot analysis; assay type: cell-based; conditions: dose 2.5-5 µM
# Signal transducer and activator of transcription 3 (Homo sapiens), sequence (P40763 whole entry): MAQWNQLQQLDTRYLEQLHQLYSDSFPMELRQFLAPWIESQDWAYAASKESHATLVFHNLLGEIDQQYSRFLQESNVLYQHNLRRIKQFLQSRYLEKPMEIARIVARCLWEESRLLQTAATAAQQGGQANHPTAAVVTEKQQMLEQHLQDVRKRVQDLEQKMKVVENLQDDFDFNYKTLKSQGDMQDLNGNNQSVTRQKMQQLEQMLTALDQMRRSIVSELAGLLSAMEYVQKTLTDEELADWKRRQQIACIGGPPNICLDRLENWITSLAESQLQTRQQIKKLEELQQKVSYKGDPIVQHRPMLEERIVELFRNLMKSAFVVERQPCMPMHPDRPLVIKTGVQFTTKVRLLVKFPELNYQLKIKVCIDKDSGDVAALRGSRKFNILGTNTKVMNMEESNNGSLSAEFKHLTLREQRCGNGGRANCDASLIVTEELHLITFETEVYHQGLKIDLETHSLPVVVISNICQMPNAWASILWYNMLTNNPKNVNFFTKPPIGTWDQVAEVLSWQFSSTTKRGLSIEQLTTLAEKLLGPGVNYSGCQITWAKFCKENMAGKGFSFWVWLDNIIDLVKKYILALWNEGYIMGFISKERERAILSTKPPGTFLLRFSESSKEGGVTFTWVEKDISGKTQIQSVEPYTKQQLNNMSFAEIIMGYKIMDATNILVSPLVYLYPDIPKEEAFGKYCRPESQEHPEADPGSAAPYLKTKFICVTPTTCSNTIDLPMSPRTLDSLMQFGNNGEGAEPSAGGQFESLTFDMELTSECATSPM
# [24] = Developmental toxicity in wild type AB zebrafish assessed as effect on heart at 50 uM incubated for 72 hrs under dark condition; set-up: species or system Danio rerio; conditions: in vivo
# [25] = biological target: T1, c-Jun N-terminal kinase, JNK (Homo sapiens) (UniProt P45983+P53779+P45984); experiment: Activation of JNK pathway in human A549 cells assessed as effect on JNK protein expression at 2.5 to 5 uM by Western blot analysis; assay type: cell-based; conditions: filed as activator, dose 2.5-5 µM
# [26] = Developmental toxicity in wild type AB zebrafish assessed as hatching rate at 50 uM incubated for 72 hrs under dark condition; set-up: species or system Danio rerio; conditions: in vivo
# [27] = Developmental toxicity in wild type AB zebrafish assessed as hatching rate at 50 uM incubated for 72 hrs followed by LED light irradiation at 1.8 mW cm/2 relative to control; set-up: species or system Danio rerio; conditions: in vivo
# [28] = Developmental toxicity in wild type AB zebrafish assessed as survival rate at 50 uM incubated for 72 hrs under condition relative to control; set-up: species or system Danio rerio; conditions: in vivo
# A549 [29] = experiment: Activation of ERK1/2 pathway in human A549 cells assessed as increase in ERK phosphorylation level at 2.5 to 5 uM by Western blot analysis; assay type: cell-based; conditions: filed as activator, dose 2.5-5 µM
# A549 [30] = experiment: Induction of apoptosis in human A549 cells assessed as downregulation of caspase-3 expression at 2.5 to 5 uM with irradiation of LED light at 1.8 mW cm/2 by Western blot analysis; assay type: functional, cell-based; conditions: dose 2.5-5 µM
# [31] = Developmental toxicity in wild type AB zebrafish assessed as effect on morphological abnormalities at 1.57 to 50 uM incubated for 72 hrs under dark condition; set-up: species or system Danio rerio; conditions: in vivo, dose 1.57-50 µM
# [32] = Induction of type-2 ROS generation in methanol assessed as generation of single oxygen at 0.5 uM followed by Xe lamp irradiation for 5 mins by DCFH staining based analysis; assay type: functional
# HepG2 = experiment: Phototoxicity against human HepG2 cells assessed as reduction in cell proliferation at 0.156 to 10 uM irradiated with LED light at 1.8 mWcm/2 for 2 hrs and measured after 24 hrs under normoxia condition by MTT assay; assay type: functional, cell-based; conditions: dose 0.156-10 µM, time 26.0 hrs
# [33] = Drug localization in ER of human A549 cells assessed as colocalization by ER-Tracker green staining based analysis; assay type: ADME, subcellular, Endoplasmic reticulum
# Mitochondrial membrane [34] = experiment: Induction of mitochondrial membrane potential loss in human A549 cells assessed as increase in green fluorescence of JC-1 monomers at 0.4 to 1.2 uM incubated for 24 hrs with irradiation of LED light at 1.8 mW cm/2 by light microscopy analysis; assay type: cell membranes; conditions: dose 0.4-1.2 µM
# [35] = biological target: T1, c-Jun N-terminal kinase, JNK (Homo sapiens); experiment: Activation of JNK pathway in human A549 cells assessed as increase in JNK phosphorylation level at 2.5 to 5 uM by Western blot analysis; assay type: cell-based; conditions: filed as activator, dose 2.5-5 µM
# A549 [36] = experiment: Inhibition of cell migration in human A549 cells assessed as appearance of loose cells at 0.25 uM preincubated for 12 hrs followed by incubation under dark condition and measured after 48 hrs by wound healing assay; assay type: functional, cell-based; conditions: time 60.0 hrs
# [37] = Phototoxicity against human A549 cells assessed as reduction in cell proliferation irradiated with LED light at 1.8 mWcm/2 for 2 hrs and measured after 24 hrs under normoxia condition by MTT assay; assay type: functional, cell-based; conditions: A549, light or radiation study
# A549 [38] = experiment: Induction of apoptosis in human A549 cells assessed as downregulation of Bcl-2 expression at 2.5 to 5 uM with irradiation of LED light at 1.8 mW cm/2 by Western blot analysis; assay type: functional, cell-based; conditions: dose 2.5-5 µM
# A549 [39] = experiment: Inhibition of cell migration in human A549 cells at 0.25 uM preincubated for 12 hrs followed by incubation under dark condition and measured after 48 hrs by wound healing assay; assay type: functional, cell-based; conditions: time 60.0 hrs
# A549 [40] = experiment: Induction of apoptosis in human A549 cells assessed as upregulation of cleaved caspase-3 expression at 2.5 to 5 uM with irradiation of LED light at 1.8 mW cm/2 by Western blot analysis; assay type: functional, cell-based; conditions: dose 2.5-5 µM
# [41] = biological target: Signal transducer and activator of transcription 3 (Homo sapiens) (UniProt P40763); experiment: Inhibition of STAT3 pathway in human A549 cells assessed as decrease in STAT3 phosphorylation level at 2.5 to 5 uM by Western blot analysis; assay type: cell-based; conditions: dose 2.5-5 µM
# [42] = Developmental toxicity in wild type AB zebrafish assessed as effect on morphological abnormalities at 1.57 to 50 uM incubated for 72 hrs followed by LED light irradiation at 1.8 mW cm/2; set-up: species or system Danio rerio; conditions: in vivo, dose 1.57-50 µM
# A549 [43] = experiment: Activation of MAPK pathway in human A549 cells assessed as increase in MAPK phosphorylation level at 2.5 to 5 uM by Western blot analysis; assay type: cell-based; conditions: filed as activator, dose 2.5-5 µM
compound,measurement,setting,value
CCN(CC)c1ccc2cc(C(=O)/C=C/c3cc4c(cc3OC)N3Cc5cc(Br)c(OC)cc5N(C4)C3)c(=O)oc2c1,Activity,[1],Toxic
same,Activity,[2],inactive
same,fold change (FC),[3],17.4
same,Fluorescence quantum yield,[4],0.16
same,Activity,[5],Active
CCN(CC)c1ccc2cc(C(=O)/C=C/c3ccc4c(c3)CN3CN4Cc4cc(Br)ccc43)c(=O)oc2c1,"survival at 72 h, 50 µM",[6],100%
same,Drug uptake,[7],Active
same,inhibition,A549 [8],Active
same,Activity,MDA-MB-231,Active
same,Activity,MCF7,Active
same,Activity,[9],Non-toxic
same,Activity,[1],Toxic
same,inhibition,A549 [10],Active
same,inhibition,A549 [11],Active
same,Activity,A549 [12],inactive
same,Activity,A549 [13],Active
same,Activity,A549 [14],Active; Compound Showed Little Change In Protein Expression
same,Activity,A549 [15],Active
same,Activity,A549 [16],Active
same,Activity,A549 [17],Active
same,Activity,Mitochondrial membrane [18],Active
same,inhibition,A549 [19],Active
same,Activity,A549 [20],Active; Compound Showed Little Change In Protein Expression
same,Activity,A549 [21],Active
same,Activity,A549 [22],Active
same,inhibition,[23],Active
same,Activity,[24],Non-toxic
same,fold change (FC),[3],25.6
same,Activity,[25],Active; Compound Showed Little Change In Protein Expression
same,Activity,[26],100%
same,Fluorescence quantum yield,[4],0.12
same,Activity,[27],100%
same,"survival at 72 h, 50 µM",[28],100%
same,Activity,A549 [29],Active
same,Activity,A549 [30],Active
same,Activity,[31],Non-toxic
same,Activity,[32],Active
same,Activity,HepG2,Active
same,Drug uptake,[33],Active
same,Activity,Mitochondrial membrane [34],Active
same,Activity,[35],Active
same,inhibition,A549 [36],Active
same,Activity,[5],Active
same,IC50,[37],0.46 µM
same,Activity,A549 [38],Active
same,inhibition,A549 [39],Active
same,Activity,A549 [40],Active
same,inhibition,[41],Active
same,Activity,[42],Non-toxic
same,Activity,A549 [43],Active
